# Test results reported in US20230210831A1, “CHRONIC KIDNEY DISEASE TREATMENT OR PREVENTION METHOD” (Japan Tobacco Inc., priority 2019, published 2023).
# Legend:
# Format in all cases: cell-based
# [1] = tested on: Salmonella typhimurium TA98; assay: Ames test (reverse mutation test), TA98
# Experimental: (§1) The solvent used herein was dimethyl sulfoxide (DMSO, 100 µL/plate).
# (§2) The mixtures were preincubated at 37° C. for 20 minutes while shaking. […] Two plates per treatment were used.
# [2] = tested on: Salmonella typhimurium TA1537; assay: Ames test (reverse mutation test), TA1537
# Experimental: as §1, §2
# [3] = tested on: Salmonella typhimurium TA100; assay: Ames test (reverse mutation test), TA100
# Experimental: as §1, §2
# [4] = tested on: Salmonella typhimurium TA1535; assay: Ames test (reverse mutation test), TA1535
# Experimental: as §1, §2
# [5] = tested on: Escherichia coli WP2uvrA; assay: Ames test (reverse mutation test), WP2uvrA
# Experimental: as §1, §2
smiles,measurement,setting,value
Cc1ccc(-n2nc(N)cc2-c2cccc(OCC(F)(F)F)c2)cc1 [Metabolite F],Number of revertant colonies TA98,"[1]; S9 Mix +, dose 2.3 µg/plate",93
same,Number of revertant colonies TA98,"[1]; S9 Mix +, dose 6.9 µg/plate",218
same,Number of revertant colonies TA98,"[1]; S9 Mix +, dose 21 µg/plate",522
same,Number of revertant colonies TA98,"[1]; S9 Mix +, dose 62 µg/plate",484
same,Number of revertant colonies TA98,"[1]; S9 Mix +, dose 185 µg/plate",287
same,Number of revertant colonies TA98,"[1]; S9 Mix +, dose 556 µg/plate",151
same,Number of revertant colonies TA98,"[1]; S9 Mix +, dose 1667 µg/plate",61
same,Number of revertant colonies TA98,"[1]; S9 Mix +, dose 5000 µg/plate",0
same,Number of revertant colonies TA98,"[1]; S9 Mix -, dose 2.3 µg/plate",25
same,Number of revertant colonies TA98,"[1]; S9 Mix -, dose 6.9 µg/plate",32
same,Number of revertant colonies TA98,"[1]; S9 Mix -, dose 21 µg/plate",21
same,Number of revertant colonies TA98,"[1]; S9 Mix -, dose 62 µg/plate",21
same,Number of revertant colonies TA98,"[1]; S9 Mix -, dose 185 µg/plate",20
same,Number of revertant colonies TA98,"[1]; S9 Mix -, dose 556 µg/plate",19
same,Number of revertant colonies TA98,"[1]; S9 Mix -, dose 1667 µg/plate",6
same,Number of revertant colonies TA98,"[1]; S9 Mix -, dose 5000 µg/plate",0
same,potential to induce reverse mutations,[1]; TA98 with S9 mix,showed potential to induce reverse mutations
same,Number of revertant colonies TA1537,"[2]; S9 Mix +, dose 2.3 µg/plate",41
same,Number of revertant colonies TA1537,"[2]; S9 Mix +, dose 6.9 µg/plate",92
same,Number of revertant colonies TA1537,"[2]; S9 Mix +, dose 21 µg/plate",157
same,Number of revertant colonies TA1537,"[2]; S9 Mix +, dose 62 µg/plate",227
same,Number of revertant colonies TA1537,"[2]; S9 Mix +, dose 185 µg/plate",151
same,Number of revertant colonies TA1537,"[2]; S9 Mix +, dose 556 µg/plate",54
same,Number of revertant colonies TA1537,"[2]; S9 Mix +, dose 1667 µg/plate",39
same,Number of revertant colonies TA1537,"[2]; S9 Mix +, dose 5000 µg/plate",3
same,Number of revertant colonies TA1537,"[2]; S9 Mix -, dose 2.3 µg/plate",9
same,Number of revertant colonies TA1537,"[2]; S9 Mix -, dose 6.9 µg/plate",16
same,Number of revertant colonies TA1537,"[2]; S9 Mix -, dose 21 µg/plate",16
same,Number of revertant colonies TA1537,"[2]; S9 Mix -, dose 62 µg/plate",10
same,Number of revertant colonies TA1537,"[2]; S9 Mix -, dose 185 µg/plate",3
same,Number of revertant colonies TA1537,"[2]; S9 Mix -, dose 556 µg/plate",0
same,Number of revertant colonies TA1537,"[2]; S9 Mix -, dose 1667 µg/plate",0
same,Number of revertant colonies TA1537,"[2]; S9 Mix -, dose 5000 µg/plate",0
same,potential to induce reverse mutations,[2]; TA1537 with S9 mix,showed potential to induce reverse mutations
same,Number of revertant colonies TA100,"[3]; S9 Mix +, dose 2.3 µg/plate",553
same,Number of revertant colonies TA100,"[3]; S9 Mix +, dose 6.9 µg/plate",1417
same,Number of revertant colonies TA100,"[3]; S9 Mix +, dose 21 µg/plate",2888
same,Number of revertant colonies TA100,"[3]; S9 Mix +, dose 62 µg/plate",3713
same,Number of revertant colonies TA100,"[3]; S9 Mix +, dose 185 µg/plate",2889
same,Number of revertant colonies TA100,"[3]; S9 Mix +, dose 556 µg/plate",1288
same,Number of revertant colonies TA100,"[3]; S9 Mix +, dose 1667 µg/plate",1576
same,Number of revertant colonies TA100,"[3]; S9 Mix +, dose 5000 µg/plate",1160
same,Number of revertant colonies TA100,"[3]; S9 Mix -, dose 2.3 µg/plate",107
same,Number of revertant colonies TA100,"[3]; S9 Mix -, dose 6.9 µg/plate",104
same,Number of revertant colonies TA100,"[3]; S9 Mix -, dose 21 µg/plate",115
same,Number of revertant colonies TA100,"[3]; S9 Mix -, dose 62 µg/plate",109
same,Number of revertant colonies TA100,"[3]; S9 Mix -, dose 185 µg/plate",93
same,Number of revertant colonies TA100,"[3]; S9 Mix -, dose 556 µg/plate",62
same,Number of revertant colonies TA100,"[3]; S9 Mix -, dose 1667 µg/plate",58
same,Number of revertant colonies TA100,"[3]; S9 Mix -, dose 5000 µg/plate",40
same,potential to induce reverse mutations,[3]; TA100 with S9 mix,showed potential to induce reverse mutations
same,Number of revertant colonies TA1535,"[4]; S9 Mix +, dose 1667 µg/plate",0
same,Number of revertant colonies TA1535,"[4]; S9 Mix -, dose 556 µg/plate",0
same,Number of revertant colonies TA1535,"[4]; S9 Mix -, dose 1667 µg/plate",0
same,Number of revertant colonies WP2uvrA,"[5]; S9 Mix +, dose 2.3 µg/plate",25
same,Number of revertant colonies WP2uvrA,"[5]; S9 Mix +, dose 6.9 µg/plate",20
same,Number of revertant colonies WP2uvrA,"[5]; S9 Mix +, dose 21 µg/plate",30
same,Number of revertant colonies WP2uvrA,"[5]; S9 Mix +, dose 62 µg/plate",24
same,Number of revertant colonies WP2uvrA,"[5]; S9 Mix +, dose 185 µg/plate",20
same,Number of revertant colonies WP2uvrA,"[5]; S9 Mix +, dose 556 µg/plate",24
same,Number of revertant colonies WP2uvrA,"[5]; S9 Mix +, dose 1667 µg/plate",16
same,Number of revertant colonies WP2uvrA,"[5]; S9 Mix +, dose 5000 µg/plate",6
same,Number of revertant colonies WP2uvrA,"[5]; S9 Mix -, dose 2.3 µg/plate",24
same,Number of revertant colonies WP2uvrA,"[5]; S9 Mix -, dose 6.9 µg/plate",23
same,Number of revertant colonies WP2uvrA,"[5]; S9 Mix -, dose 21 µg/plate",26
same,Number of revertant colonies WP2uvrA,"[5]; S9 Mix -, dose 62 µg/plate",19
same,Number of revertant colonies WP2uvrA,"[5]; S9 Mix -, dose 185 µg/plate",13
same,Number of revertant colonies WP2uvrA,"[5]; S9 Mix -, dose 556 µg/plate",74
same,Number of revertant colonies WP2uvrA,"[5]; S9 Mix -, dose 1667 µg/plate",8
same,Number of revertant colonies WP2uvrA,"[5]; S9 Mix -, dose 5000 µg/plate",5
same,potential to induce reverse mutations,[5]; WP2uvrA without S9 mix,showed potential to induce reverse mutations
